# How the values were obtained:
# [1] = system: SARS-CoV-2 pseudovirus entry in ACE2 expressing cells; format: cell-based
# [2] = system: SARS-CoV-2 isolate USA-WA1/2020; experiment: microbe, parasite or virus in culture; format: cell-based; details: Severe acute respiratory syndrome coronavirus 2, A549, read-out: EC50 against SARS-CoV-2 isolate USA-WA1/2020 in A549 overexpressing ACE2
Structure (SMILES),"level of SARS-CoV-2 pseudovirus entry, varying concentrations (diminazene, cetirizine, labetalol graph) [1]",viral infection (GFP positive cells per image field) [1],"level of SARS-CoV-2 pseudovirus entry, varying concentrations (FIG. 15A) [1]",EC50 [2] [mg/L]
O=C(O)COCCN1CCN(C(c2ccccc2)c2ccc(Cl)cc2)CC1 (centres unmarked) [cetirizine],significantly lowered the level of SARS-CoV-2 pseudovirus entry,reduced viral infection,,
CN(C)CCC(c1ccc(Cl)cc1)c1ccccn1 (centres unmarked) [chlorpheniramine],,reduced viral infection,,
CN1CCCC(n2nc(Cc3ccc(Cl)cc3)c3ccccc3c2=O)CC1 (centres unmarked) [azelastine],,substantially reduced viral infection,significantly lowered the level of SARS-CoV-2 pseudovirus entry,
OCCOCCN1CCN(C(c2ccccc2)c2ccc(Cl)cc2)CC1 (centres unmarked) [hydroxyzine],,substantially reduced viral infection,significantly lowered the level of SARS-CoV-2 pseudovirus entry,27.3
CN(C)CCOC(c1ccccc1)c1ccccc1 [diphenhydramine],,substantially reduced viral infection,,
N=C(N)c1ccc(/N=N/Nc2ccc(C(=N)N)cc2)cc1 [diminazene],significantly lowered the level of SARS-CoV-2 pseudovirus entry,reduced viral infection,,

# From patent US20230129326A1, “METHODS TO PREVENT SARS-COV-2 INFECTION AND TREAT COVID-19” (priority 2020, published 2023)
